Data from ChEMBL document CHEMBL3137381, “MMV Box Onchocerca lienalis screening set”.

Tests used:
Assay type in all cases: functional
Onchocerca lienalis [1] = assay: MMV: Percent motility assay at a compound concentration of 1.9e-7 M. Activity score legend: 3: Active, 2: Moderately active; 1: Inactive, 0: Toxic; details: at 0.19 µM
Onchocerca lienalis [2] = assay: MMV: Percent motility assay at a compound concentration of 3.1e-6 M. Activity score legend: 3: Active, 2: Moderately active; 1: Inactive, 0: Toxic; details: at 3.1 µM
Onchocerca lienalis [3] = assay: MMV: Percent motility assay at a compound concentration of 7.8e-7 M. Activity score legend: 3: Active, 2: Moderately active; 1: Inactive, 0: Toxic; details: at 0.78 µM
Onchocerca lienalis [4] = assay: MMV: Percent motility assay at a compound concentration of 1.25e-5 M. Activity score legend: 3: Active, 2: Moderately active; 1: Inactive, 0: Toxic; details: at 12.5 µM

Row | Structure (SMILES) | Motility (Onchocerca lienalis [1]) [%] | Motility (Onchocerca lienalis [2]) [%] | Motility (Onchocerca lienalis [3]) [%] | Motility (Onchocerca lienalis [4]) [%]
1 | COc1ccc2c(c1)C1(Nc3ccccc3-c3nc4ccccc4n31)C(=O)N2 (stereo not drawn) | 100 | 100 | 100 | 100
2 | COc1cccc(Cn2c(Oc3ccccc3)nc3c2c(=O)n(C)c(=O)n3C)c1 | 100 | 100 | 100 | 100
3 | CCOc1c(Cl)cc(CNCC(O)c2ccccc2)cc1OC (stereo not drawn) | 100 | 100 | 100 | 100
4 | OC(CNCC1CCCO1)Cn1c2ccc(Cl)cc2c2cc(Cl)ccc21 (stereo not drawn) | 100 | 100 | 100 | 100
5 | COc1ccc2nc(C)cc(Nc3ccccc3O)c2c1 | 100 | 100 | 100 | 100
6 | CCn1nc(-c2ccc(C(=O)OC)cc2)nc2c(=O)n(C)c(=O)nc1-2 | 100 | 100 | 100 | 100
7 | CC1(c2ccccc2)Nc2ccccc2-c2nc3ccccc3n21 (stereo not drawn) | 100 | 100 | 100 | 100
8 | CC(C)(C)CC(C)(C)NCC(O)COc1ccc(Cl)cc1Cl (stereo not drawn) | 100 | 100 | 100 | 100
9 | O=C(Nc1ccc(Br)cc1)Nc1cccc(Cl)c1 | 100 | 100 | 100 | 100
10 | CN(C)CCNc1cc(-c2ccccc2)nc2ccccc12 | 100 | 100 | 100 | 100
11 | COc1ccc2nc(C)cc(Nc3ccc(Cl)cc3)c2c1 | 100 | 100 | 100 | 0
12 | CCC(O)c1ccc(Br)cc1NC(=O)c1cccc(Cl)c1 (stereo not drawn) | 100 | 100 | 100 | 100
13 | COc1ccc2nc(C)cc(Nc3cccc(O)c3)c2c1.Cl | 100 | 100 | 100 | 100
14 | Cc1sc2ncnc(Sc3nc4ccccc4[nH]3)c2c1C | 100 | 100 | 100 | 100
15 | O=C(Nc1ccc(CN2CCOCC2)cc1)c1ccc(-c2cc(Cl)ccc2Cl)o1 | 100 | 100 | 100 | 100
16 | Cc1cc(Nc2cccc(F)c2)nc(NCc2ccccc2)n1 | 100 | 100 | 100 | 33.33
17 | COCCn1c(C)nc2ccccc2c1=O | 100 | 100 | 100 | 100
18 | O=C(Nc1cccc(-c2nc3ccccc3[nH]2)c1)c1cccc(NC(=O)c2ccco2)c1 | 100 | 100 | 100 | 100
19 | O=C(NC1CCN(Cc2ccccc2)CC1)c1cc(-c2cccnc2)nc2ccc(Cl)cc12 | 100 | 100 | 100 | 100
20 | CCN(Cc1ccccc1)C1CCN(Cc2cc(Br)ccc2O)CC1.O=C(O)C(=O)O | 100 | 100 | 100 | 100
21 | CCOc1ccccc1NC(=O)CN1CCN(C(=O)c2ccco2)CC1 | 100 | 100 | 100 | 100

Row | Structure (SMILES) | Motility (Onchocerca lienalis [1]) [%] | Motility (Onchocerca lienalis [2]) [%] | Motility (Onchocerca lienalis [3]) [%] | Motility (Onchocerca lienalis [4]) [%]
22 | COc1ccc(-c2nonc2NC(=O)c2cccc(Cl)c2)cc1OC | 100 | 100 | 100 | 100
23 | Cc1cc(NC(=O)c2ccc(-c3ccccc3)cc2)no1 | 100 | 100 | 100 | 100
24 | CCOc1cc2c(cc1OCC)C(c1cc(C)c(O)c(C)c1)NCC2.Cl (stereo not drawn) | 100 | 100 | 100 | 100
25 | O=C1CC(O)(C(F)(F)C(F)(F)F)Oc2ccccc21 (stereo not drawn) | 100 | 100 | 100 | 100
26 | COc1cc(SC)ccc1C(=O)N1CCCC(C)C1 (stereo not drawn) | 100 | 100 | 100 | 100
27 | CC(C)c1ccc(CNCC(O)c2ccccc2)cc1.Cl (stereo not drawn) | 100 | 100 | 100 | 100
28 | Cc1ccc(NC(=O)Nc2cccc(Cl)c2)cc1F | 100 | 100 | 100 | 100
29 | O=C(O)C(=O)O.Oc1ccc(Br)cc1CN1CCN(Cc2cccc(F)c2)CC1 | 100 | 100 | 100 | 100
30 | O=c1nc(C=Cc2ccc(Cl)cc2)oc2ccccc12 | 100 | 100 | 100 | 100
31 | O=C(NCc1ccco1)C1CCN(S(=O)(=O)c2ccc(Br)cc2)CC1 | 100 | 100 | 100 | 100
32 | CN(C)c1ccc(N2C(N)=NC(N)=NC2(C)C)cc1 | 100 | 100 | 100 | 100
33 | COc1ccc(Nc2nc(NCc3ccccc3)c3ccccc3n2)cc1 | 100 | 100 | 100 | 33.33
34 | COc1cc2c(cc1OC)C1=NNC(=O)C1=NC(C)(C)C2 | 100 | 100 | 100 | 100
35 | Oc1c(CN2CCN(c3ccccc3F)CC2)cc(Br)c2cccnc12 | 100 | 100 | 100 | 66.66
36 | CCCCc1c(C)nc2c(OC)cccc2c1O | 100 | 100 | 100 | 100
37 | Clc1ccc2c(N3CCCC3)ccnc2c1 | 100 | 100 | 100 | 100
38 | CCOC(=O)C1CCN(C(=O)CN2C(=O)c3ccccc3C2c2c[nH]c3ccccc23)CC1 (stereo not drawn) | 100 | 100 | 100 | 100
39 | CCOc1ccc(CCNC(=O)c2cccs2)cc1OCC | 100 | 100 | 100 | 100
40 | O=c1c2c([nH]c3ccccc13)CCCC2 | 100 | 100 | 100 | 100
41 | Cc1c(C)n(CC(O)CNC2CCCCC2C)c2ccccc12 (stereo not drawn) | 100 | 100 | 100 | 100
42 | CCCCN(CCCC)S(=O)(=O)c1ccc(NC(=O)c2ccco2)cc1 | 100 | 100 | 100 | 100
